Data taken from patent US20110105509A1 (Wyeth, LLC, priority 2009, published 2011).

Target: T1, CRTH2 (Homo sapiens, UniProt Q9Y5Y4)
T1 construct: expressed in transfected cells; host or cells: CHO cells
T1 sequence (Q9Y5Y4 1-395): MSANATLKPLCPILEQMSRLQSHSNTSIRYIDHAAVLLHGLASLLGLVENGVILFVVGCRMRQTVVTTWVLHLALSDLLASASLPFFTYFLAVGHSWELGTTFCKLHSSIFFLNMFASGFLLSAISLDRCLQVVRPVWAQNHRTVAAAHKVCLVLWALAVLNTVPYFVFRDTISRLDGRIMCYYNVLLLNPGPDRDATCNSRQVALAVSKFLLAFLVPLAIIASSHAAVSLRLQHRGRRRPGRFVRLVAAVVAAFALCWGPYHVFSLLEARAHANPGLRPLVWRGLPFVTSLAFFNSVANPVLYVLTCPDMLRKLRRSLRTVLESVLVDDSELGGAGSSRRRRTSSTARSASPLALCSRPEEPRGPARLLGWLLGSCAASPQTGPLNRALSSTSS
Assay: FRET based competitive immunoassay (cAMP) in CRTH2 expressing CHO cells
Format: cell-based
Conditions: CRTH2 expressing CHO cells incubated with forskolin and PGD2; Eu3+ cryptate-labeled anti-cAMP and d2-labeled cAMP
Protocol: FRET Assay: To evaluate potency compounds were tested in a FRET based competitive immunoassay in which CRTH2 expressing CHO cells were incubated in the presence of forskolin and PGD2 along with Eu3+ cryptate-labeled anti-cAMP and d2-labeled cAMP.

Going from `Cc1c(-c2ccc(=O)n(C3CCCC3)c2)c2ccccc2n1CC(=O)O` [Example 288, 2-(3-(1-cyclopentyl-6-oxo-1,6-dihydropyridin-3-yl)-2-methyl-1H-indol-1-yl)-acetic acid] to `Cc1c(-c2ccc(=O)n(CCCC(F)(F)F)c2)c2ccccc2n1CC(=O)O` [Example 296, 2-(2-methyl-3-(6-oxo-1-(4,4,4-trifluorobutyl)-1,6-dihydropyridin-3-yl)-1H-indol-1-yl)acetic acid], the IC50 rises from 0.117 µM to 0.397 µM (3.4-fold).

Compared with `Cc1c(-c2ccc(=O)n(Cc3ccc(F)cc3)c2)c2cc(Cl)ccc2n1CC(=O)O` [Example 289, 2-(5-chloro-3-(1-(4-fluorobenzyl)-6-oxo-1,6-dihydropyridin-3-yl)-2-methyl-1H-indol-1-yl)acetic acid], `Cc1c(-c2ccc(=O)n(Cc3cccc(F)c3)c2)c2cc(Cl)ccc2n1CC(=O)O` [Example 295, 2-(5-chloro-3-(1-(3-fluorobenzyl)-6-oxo-1,6-dihydropyridin-3-yl)-2-methyl-1H-indol-1-yl)acetic acid] is 1.8-fold higher in IC50: 0.006 µM for the first, 0.011 µM for the second.

Compared with `Cc1c(-c2ccc(=O)n(Cc3ccccc3F)c2)c2cc(Cl)ccc2n1CC(=O)O` [Example 290, 2-(5-chloro-3-(1-(2-fluorobenzyl)-6-oxo-1,6-dihydropyridin-3-yl)-2-methyl-1H-indol-1-yl)acetic acid], `Cc1c(-c2ccc(=O)n(Cc3cccc(F)c3F)c2)c2cc(Cl)ccc2n1CC(=O)O` [Example 292, 2-(5-Chloro-3-(1-(2,3-difluorobenzyl)-6-oxo-1,6-dihydropyridin-3-yl)-2-methyl-1H-indol-1-yl)acetic acid] is 1.6-fold higher in IC50: 0.007 µM for the first, 0.011 µM for the second. The first is the more potent here.

Going from `Cc1c(-c2ccc(=O)n(Cc3c(F)cccc3F)c2)c2cc(Cl)ccc2n1CC(=O)O` [Example 291, 2-(5-chloro-3-(1-(2,6-difluorobenzyl)-6-oxo-1,6-dihydropyridin-3-yl)-2-methyl-1H-indol-1-yl)acetic acid] to `Cc1c(-c2ccc(=O)n(Cc3cc(F)cc(F)c3)c2)c2cc(Cl)ccc2n1CC(=O)O` [Example 294, 2-(5-Chloro-3-(1-(3,5-difluorobenzyl)-6-oxo-1,6-dihydropyridin-3-yl)-2-methyl-1H-indol-1-yl)acetic acid], the IC50 falls from 0.008 µM to 0.002 µM (4-fold). The second is the more potent here.

`Cc1c(-c2ccc(=O)n(CCCC(F)(F)F)c2)c2cc(F)ccc2n1CC(=O)O` [Example 297, 2-(5-fluoro-2-methyl-3-(6-oxo-1-(4,4,4-trifluorobutyl)-1,6-dihydropyridin-3-yl)-1H-indol-1-yl)acetic acid] and `Cc1c(-c2ccc(=O)n(CCC(F)(F)F)c2)c2cc(F)ccc2n1CC(=O)O` [Example 307, 2-(5-fluoro-2-methyl-3-(6-oxo-1-(3,3,3-trifluoropropyl)-1,6-dihydropyridin-3-yl)-1H-indol-1-yl)acetic acid] are within 1.5-fold of each other in IC50: 0.038 µM for the first, 0.028 µM for the second.

Compared with `COc1ccc2c(c1)c(-c1ccc(=O)n(CC(F)(F)F)c1)c(C)n2CC(=O)O` [Example 298, 2-(5-methoxy-2-methyl-3-(6-oxo-1-(2,2,2-trifluoroethyl)-1,6-dihydropyridin-3-yl)-1H-indol-1-yl)acetic acid], `Cc1ccc2c(c1)c(-c1ccc(=O)n(CC(F)(F)F)c1)c(C)n2CC(=O)O` [Example 304, 2-(2,5-dimethyl-3-(6-oxo-1-(2,2,2-trifluoroethyl)-1,6-dihydropyridin-3-yl)-1H-indol-1-yl)acetic acid] is lower in IC50: over 2 µM for the first, 1.18 µM for the second.

`Cc1c(-c2ccc(=O)n(Cc3cccc(F)c3F)c2)c2cc(F)ccc2n1CC(=O)N1CCCC1` [Example 299, 1-(2,3-difluorobenzyl)-5-(5-fluoro-2-methyl-1-(2-oxo-2-(pyrrolidin-1-yl)-ethyl)-1H-indol-3-yl)pyridin-2(1H)-one] and `Cc1c(-c2ccc(=O)n(Cc3cccc(F)c3F)c2)c2cc(F)ccc2n1CC(N)=O` [Example 301, 2-(3-(1-(2,3-difluorobenzyl)-6-oxo-1,6-dihydropyridin-3-yl)-5-fluoro-2-methyl-1H-indol-1-yl)acetamide] cannot be ordered by IC50: over 2 µM for the first, over 2 µM for the second.

`Cc1c(-c2ccc(=O)n(Cc3cccc(F)c3F)c2)c2cc(F)ccc2n1CC(=O)N(C)C` [Example 300, 2-(3-(1-(2,3-difluorobenzyl)-6-oxo-1,6-dihydropyridin-3-yl)-5-fluoro-2-methyl-1H-indol-1-yl)-N,N-dimethylacetamide] and `Cc1c(-c2ccc(=O)n(Cc3cccc(F)c3F)c2)c2cc(F)ccc2n1CCO` [Example 305, 1-(2,3-difluorobenzyl)-5-(5-fluoro-1-(2-hydroxyethyl)-2-methyl-1H-indol-3-yl)-pyridin-2(1H)-one] cannot be ordered by IC50: over 2 µM for the first, over 2 µM for the second.

First: Cc1c(-c2ccc(=O)n(Cc3cccc(F)c3F)c2)c2cc(F)ccc2n1CC(=O)NS(C)(=O)=O [Example 302, 2-(3-(1-(2,3-Difluorobenzyl)-6-oxo-1,6-dihydropyridin-3-yl)-5-fluoro-2-methyl-1H-indol-1-yl)-N-(methylsulfonyl)acetamide]
Second: Cc1c(-c2ccc(=O)n(Cc3cccc(F)c3F)c2)c2cc(F)ccc2n1CC#N [Example 310, 2-(3-(1-(2,3-difluorobenzyl)-6-oxo-1,6-dihydropyridin-3-yl)-5-fluoro-2-methyl-1H-indol-1-yl)acetonitrile]
The IC50 of the first is lower: 0.159 µM for the first, over 1 µM for the second. The first is the more potent here.

`Cc1c(-c2ccc(=O)n(Cc3cccc(F)c3F)c2)c2cc(F)ccc2n1CCC(=O)O` [Example 303, 3-(3-(1-(2,3-difluorobenzyl)-6-oxo-1,6-dihydropyridin-3-yl)-5-fluoro-2-methyl-1H-indol-1-yl)propanoic acid] and `Cc1c(-c2ccc(=O)n(Cc3cccc(F)c3F)c2)c2cc(F)ccc2n1[C@@H](C)C(=O)O` [Example 306a, (S)-2-(3-(1-(2,3-difluorobenzyl)-6-oxo-1,6-dihydropyridin-3-yl)-5-fluoro-2-methyl-1H-indol-1-yl)propanoic acid] cannot be ordered by IC50: over 2 µM for the first, over 2 µM for the second.

`Cc1c(-c2ccc(=O)n(Cc3cccc(F)c3F)c2)c2cc(F)ccc2n1[C@H](C)C(=O)O` [Example 306b, (R)-2-(3-(1-(2,3-difluorobenzyl)-6-oxo-1,6-dihydropyridin-3-yl)-5-fluoro-2-methyl-1H-indol-1-yl)propanoic acid] and `Cc1c(-c2ccc(=O)n(Cc3cccc(F)c3F)c2)c2cc(F)ccc2n1Cc1nn[nH]n1` [Example 311, 5-(1-((2H-tetrazol-5-yl)methyl)-5-fluoro-2-methyl-1H-indol-3-yl)-1-(2,3-difluoro-benzyl)pyridin-2(1H)-one] cannot be ordered by IC50: over 2 µM for the first, over 1 µM for the second.

`Cc1c(-c2ccc(=O)n(Cc3ccncc3)c2)c2cc(F)ccc2n1CC(=O)O` [Example 308, 2-(5-fluoro-2-methyl-3-(6-oxo-1-(pyridin-4-ylmethyl)-1,6-dihydropyridin-3-yl)-1H-indol-1-yl)acetic acid] and `Cc1c(-c2ccc(=O)n(Cc3cccnc3)c2)c2cc(F)ccc2n1CC(=O)O` [Example 315, 2-(5-fluoro-2-methyl-3-(6-oxo-1-(pyridin-3-ylmethyl)-1,6-dihydropyridin-3-yl)-1H-indol-1-yl)acetic acid] are within 1.5-fold of each other in IC50: 0.035 µM for the first, 0.032 µM for the second.

Going from `Cc1c(-c2ccc(=O)n(Cc3ccccn3)c2)c2cc(F)ccc2n1CC(=O)O` [Example 309, 2-(5-fluoro-2-methyl-3-(6-oxo-1-(pyridin-2-ylmethyl)-1,6-dihydropyridin-3-yl)-1H-indol-1-yl)acetic acid] to `Cc1c(-c2ccc(=O)n(Cc3ccccc3)c2)c2cc(F)ccc2n1CC(=O)NS(C)(=O)=O` [Example 313, 2-(3-(1-Benzyl-6-oxo-1,6-dihydropyridin-3-yl)-5-fluoro-2-methyl-1H-indol-1-yl)-N-(methyl-sulfonyl)acetamide], the IC50 falls from 0.105 µM to 0.032 µM (3.3-fold). The second is the more potent here.

`Cc1c(-c2ccc(=O)n(Cc3ccccc3)c2)c2cc(F)ccc2n1CC(=O)NS(=O)(=O)c1ccccc1` [Example 312, 2-(3-(1-benzyl-6-oxo-1,6-dihydropyridin-3-yl)-5-fluoro-2-methyl-1H-indol-1-yl)-N-(phenylsulfonyl)acetamide] and `Cc1ccccc1S(=O)(=O)NC(=O)Cn1c(C)c(-c2ccc(=O)n(Cc3ccccc3)c2)c2cc(F)ccc21` [Example 314, 2-(3-(1-Benzyl-6-oxo-1,6-dihydropyridin-3-yl)-5-fluoro-2-methyl-1H-indol-1-yl)-N-(o-tolyl-sulfonyl)acetamide] cannot be ordered by IC50: over 1 µM for the first, over 1 µM for the second.

Compared with `Cc1c(-c2ccc(=O)n(CCC(C(F)(F)F)C(F)(F)F)c2)c2cc(F)ccc2n1CC(=O)O` [Example 316, 2-(5-fluoro-2-methyl-3-(6-oxo-1-(4,4,4-trifluoro-3-(trifluoromethyl)butyl)-1,6-dihydropyridin-3-yl)-1H-indol-1-yl)acetic acid], `Cc1c(-c2ccc(=O)n(CCCC(F)(F)F)c2)c2cc(F)ccc2n1CC(=O)NS(C)(=O)=O` [Example 318, 2-(5-fluoro-2-methyl-3-(6-oxo-1-(4,4,4-trifluorobutyl)-1,6-dihydropyridin-3-yl)-1H-indol-1-yl)-N-(methylsulfonyl)acetamide] is higher in IC50: 0.039 µM for the first, over 1 µM for the second.

`Cc1c(-c2ccc(=O)n(CCCC(F)(F)F)c2)c2cc(F)ccc2n1CC(=O)NS(=O)(=O)C1CC1` [Example 317, N-(cyclopropylsulfonyl)-2-(5-fluoro-2-methyl-3-(6-oxo-1-(4,4,4-trifluorobutyl)-1,6-dihydropyridin-3-yl)-1H-indol-1-yl)acetamide] and `Cc1c(-c2ccc(=O)n(Cc3ccccc3)c2)c2cc(F)ccc2n1CC(=O)NS(=O)(=O)C1CC1` [Example 319, 2-(3-(1-Benzyl-6-oxo-1,6-dihydropyridin-3-yl)-5-fluoro-2-methyl-1H-indol-1-yl)-N-(cyclo-propyl-sulfonyl)acetamide] cannot be ordered by IC50: over 1 µM for the first, over 1 µM for the second.
